Assay results from patent US12692274B2, “Tetrahydroisoquinoline derivatives for the treatment of red blood disorders and inflammatory diseases” (Sanofi, priority 2020, dated 2026).
Several values for one entry are separate records, joined by “and”; a condition that tells them apart may be missing. Equal values may be shown once.

Test system: NQO1 activation in BEAS-2B cells
Experiment: BEAS-2B cellular MTT assay of NQO1 activation, 0% HSA
Format: cell-based
Conditions: Homo sapiens, Serum Free W, read-out: BEAS EC50 (nM) Serum Free W
Summary of the method: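 For the 0% HSA condition, cells were seeded into collagen plates in HSA-free medium. Culture was BEAS-2B in BEBM plus BEGM SingleQuots lacking GA-1000, held under 70% confluence, at a seeding density reaching 95-100% confluence by 48 h.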

| Structure (SMILES) | EC50 [nM] |
| --- | --- |
| Cc1c2ccc3c1nnn3CCCCCc1cnc3c(c1)cc(n3C)C(=O)N1CCc3ccc(cc3C1)[C@@H]2CC(=O)O [Compound 112] | 2.9 |
| Cc1c2ccc3c1nnn3CCCCCc1ccc3c(c1)cc(n3C)C(=O)N1CCc3ccc(cc3C1)[C@H]2[C@H](C)C(=O)O [Compound 114] | 0.1 |
| Cc1c2ccc3c1nnn3CCCCCOc1ccc(cc1)C(=O)N1CCc3ccc(cc3C1)[C@@H]2[C@@H](C)C(=O)O [Compound 118] | 2.5 |
| Cc1cc2ncc1[C@H](CC(=O)O)c1ccc3c(c1)CN(CC3)C(=O)c1c(F)cc(cc1F)CCCCCO2 [Compound 120] | 1.4 |
| Cn1cc2c3ccc(cc31)CCCCOc1ccc(cn1)C(CC(=O)O)c1ccc3c(c1)CN(CC3)C2=O (centres unmarked) [Compound 121] | > 1000 |
| Cc1cc2ncc1[C@@H](CC(=O)O)c1ccc3c(c1)CN(CC3)C(=O)c1c(F)cc(cc1F)CCCCCO2 [Compound 122] | 17.6 |
| Cc1c2cnc3c1nnn3CCCCCc1ccc(cc1)C(=O)N1CCc3ccc(cc3C1)[C@@H]2CC(=O)O [Compound 124] | 7.6 |
| Cc1cc2ncc1C(CC(=O)O)c1ccc3c(c1)CN(CC3)C(=O)c1cn(C)c3ccc(cc13)CCCCCO2 (centres unmarked) [Compound 126] | > 1000 |
| Cc1c2cnc3c1nnn3CCCCCCOc1cc(F)c(c(F)c1)C(=O)N1CCc3ccc(cc3C1)C2CC(=O)O (centres unmarked) [Compound 128] | 9.8 |

Same assay, conditions: Homo sapiens, serum free, read-out: BEAS EC50 (nM) serum free

| Structure (SMILES) | EC50 [nM] |
| --- | --- |
| Cc1c2cnc3c1nnn3CCCCCCOc1cc(F)c(c(F)c1)C(=O)N1CCc3ccc(cc3C1)C2CC(=O)O (centres unmarked) [Compound 128] | 14.2 |

Same assay, conditions: Serum Free W, read-out: BEAS EC50 (nM) Serum Free W

| Structure (SMILES) | EC50 [nM] |
| --- | --- |
| Cc1c2ccc3c1nnn3CCCCCc1cnc3c(c1)cc(n3C)C(=O)N1CCc3ccc(cc3C1)[C@@H]2CC(=O)O [Compound 112] | 2.7 |
| Cc1c2ccc3c1nnn3CCCCCc1ccc3c(c1)cc(n3C)C(=O)N1CCc3ccc(cc3C1)[C@H]2[C@H](C)C(=O)O [Compound 114] | 0.2 |
| Cc1c2ccc3c1nnn3CCCCCOc1ccc(cc1)C(=O)N1CCc3ccc(cc3C1)[C@@H]2[C@@H](C)C(=O)O [Compound 118] | 4.2 |
| Cc1cc2ncc1[C@@H](CC(=O)O)c1ccc3c(c1)CN(CC3)C(=O)c1c(F)cc(cc1F)CCCCCO2 [Compound 122] | 30.2 |
| Cc1c2cnc3c1nnn3CCCCCc1ccc(cc1)C(=O)N1CCc3ccc(cc3C1)[C@@H]2CC(=O)O [Compound 124] | 7.3 |
| Cc1c2cnc3c1nnn3CCCCCCOc1cc(F)c(c(F)c1)C(=O)N1CCc3ccc(cc3C1)C2CC(=O)O (centres unmarked) [Compound 128] | 7.1 |

Same assay, conditions: serum free, read-out: BEAS EC50 (nM) serum free

| Structure (SMILES) | EC50 [nM] |
| --- | --- |
| Cc1c2cnc3c1nnn3CCCCCCOc1cc(F)c(c(F)c1)C(=O)N1CCc3ccc(cc3C1)C2CC(=O)O (centres unmarked) [Compound 128] | 12.2 |

Test system: NQO1 activation in BEAS-2B cells
Experiment: BEAS-2B cellular MTT assay of NQO1 activation, 0.3% HSA
Format: cell-based
Conditions: BEAS+ W, read-out: BEAS+ W EC50
Summary of the method: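 MTT read-out in BEAS-2B cells grown in BEBM with SingleQuots, no GA-1000, kept below 70% confluence; plates coated with collagen, with 0.3% or 0% HSA medium, seeded to 95-100% confluency at 48 h, 37 °C, 5% CO2.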

| Structure (SMILES) | EC50 |
| --- | --- |
| Cc1c2ccc3c1nnn3CCCCCc1cnc3c(c1)cc(n3C)C(=O)N1CCc3ccc(cc3C1)[C@@H]2CC(=O)O [Compound 112] | 25.5 nM |
| Cc1c2ccc3c1nnn3CCCCCc1ccc3c(c1)cc(n3C)C(=O)N1CCc3ccc(cc3C1)[C@H]2[C@H](C)C(=O)O [Compound 114] | 8.2 nM |
| Cc1c2ccc3c1nnn3CCCCCOc1ccc(cc1)C(=O)N1CCc3ccc(cc3C1)[C@@H]2[C@@H](C)C(=O)O [Compound 118] | 4.4 nM and 3.6 nM and 6.5 nM |
| Cc1cc2ncc1[C@H](CC(=O)O)c1ccc3c(c1)CN(CC3)C(=O)c1c(F)cc(cc1F)CCCCCO2 [Compound 120] | 7.6 nM and 4.6 nM and 6.3 nM |
| Cc1cc2ncc1[C@@H](CC(=O)O)c1ccc3c(c1)CN(CC3)C(=O)c1c(F)cc(cc1F)CCCCCO2 [Compound 122] | 54.2 nM |
| Cc1c2cnc3c1nnn3CCCCCc1ccc(cc1)C(=O)N1CCc3ccc(cc3C1)[C@@H]2CC(=O)O [Compound 124] | 12.5 nM |
| Cc1c2cnc3c1nnn3CCCCCCOc1cc(F)c(c(F)c1)C(=O)N1CCc3ccc(cc3C1)C2CC(=O)O (centres unmarked) [Compound 128] | 47.2 nM |

Same assay, conditions: BEAS+, read-out: BEAS+ EC50

| Structure (SMILES) | EC50 [nM] |
| --- | --- |
| Cc1c2cnc3c1nnn3CCCCCCOc1cc(F)c(c(F)c1)C(=O)N1CCc3ccc(cc3C1)C2CC(=O)O (centres unmarked) [Compound 128] | 20.3 |

Same assay, conditions: Homo sapiens, BEAS+ W, read-out: BEAS+ W EC50

| Structure (SMILES) | EC50 [nM] |
| --- | --- |
| Cc1c2ccc3c1nnn3CCCCCc1cnc3c(c1)cc(n3C)C(=O)N1CCc3ccc(cc3C1)[C@@H]2CC(=O)O [Compound 112] | 23 |
| Cc1c2ccc3c1nnn3CCCCCc1ccc3c(c1)cc(n3C)C(=O)N1CCc3ccc(cc3C1)[C@H]2[C@H](C)C(=O)O [Compound 114] | 9.8 |
| Cc1c2ccc3c1nnn3CCCCCOc1ccc(cc1)C(=O)N1CCc3ccc(cc3C1)[C@@H]2[C@@H](C)C(=O)O [Compound 118] | 3.8 |
| Cc1cc2ncc1[C@H](CC(=O)O)c1ccc3c(c1)CN(CC3)C(=O)c1c(F)cc(cc1F)CCCCCO2 [Compound 120] | 7.9 |
| Cn1cc2c3ccc(cc31)CCCCOc1ccc(cn1)C(CC(=O)O)c1ccc3c(c1)CN(CC3)C2=O (centres unmarked) [Compound 121] | > 10000 |
| Cc1cc2ncc1[C@@H](CC(=O)O)c1ccc3c(c1)CN(CC3)C(=O)c1c(F)cc(cc1F)CCCCCO2 [Compound 122] | 47 |
| Cc1c2cnc3c1nnn3CCCCCc1ccc(cc1)C(=O)N1CCc3ccc(cc3C1)[C@@H]2CC(=O)O [Compound 124] | 9 |
| Cc1cc2ncc1C(CC(=O)O)c1ccc3c(c1)CN(CC3)C(=O)c1cn(C)c3ccc(cc13)CCCCCO2 (centres unmarked) [Compound 126] | > 10000 |
| Cc1c2cnc3c1nnn3CCCCCCOc1cc(F)c(c(F)c1)C(=O)N1CCc3ccc(cc3C1)C2CC(=O)O (centres unmarked) [Compound 128] | 31 |

Same assay, conditions: Homo sapiens, BEAS+, read-out: BEAS+ EC50

| Structure (SMILES) | EC50 [nM] |
| --- | --- |
| Cc1c2cnc3c1nnn3CCCCCCOc1cc(F)c(c(F)c1)C(=O)N1CCc3ccc(cc3C1)C2CC(=O)O (centres unmarked) [Compound 128] | 17.7 |

Biological target: HIS-Keap1 full length / Biotin-Nrf2 (16-mer) (Homo sapiens, UniProt Q14145)
Sequence (Q14145 whole entry): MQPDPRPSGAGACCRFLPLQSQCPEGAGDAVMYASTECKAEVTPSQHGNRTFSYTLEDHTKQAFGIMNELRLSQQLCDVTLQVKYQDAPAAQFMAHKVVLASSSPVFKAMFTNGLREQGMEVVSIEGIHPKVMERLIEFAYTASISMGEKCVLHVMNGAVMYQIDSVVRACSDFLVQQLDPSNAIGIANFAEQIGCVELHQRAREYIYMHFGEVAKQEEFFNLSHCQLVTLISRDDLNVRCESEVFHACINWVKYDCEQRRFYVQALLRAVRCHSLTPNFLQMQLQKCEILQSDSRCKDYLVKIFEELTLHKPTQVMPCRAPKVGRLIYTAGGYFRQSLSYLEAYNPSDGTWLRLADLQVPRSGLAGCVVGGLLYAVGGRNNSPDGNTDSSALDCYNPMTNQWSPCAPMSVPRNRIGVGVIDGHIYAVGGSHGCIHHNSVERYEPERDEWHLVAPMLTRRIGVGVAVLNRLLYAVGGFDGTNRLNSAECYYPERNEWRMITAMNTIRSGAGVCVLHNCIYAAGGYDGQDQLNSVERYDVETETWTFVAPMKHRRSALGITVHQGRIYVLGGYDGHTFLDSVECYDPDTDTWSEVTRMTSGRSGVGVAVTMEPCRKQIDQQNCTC
Experiment: biochemical
Conditions: not given

| Structure (SMILES) | IC50 |
| --- | --- |
| Cc1c2ccc3c1nnn3CCCCCc1cnc3c(c1)cc(n3C)C(=O)N1CCc3ccc(cc3C1)[C@@H]2CC(=O)O [Compound 112] | 0.3 nM |
| Cc1c2ccc3c1nnn3CCCCCc1ccc3c(c1)cc(n3C)C(=O)N1CCc3ccc(cc3C1)[C@H]2[C@H](C)C(=O)O [Compound 114] | 0.4 nM |
| Cc1c2ccc3c1nnn3CCCCCOc1ccc(cc1)C(=O)N1CCc3ccc(cc3C1)[C@@H]2[C@@H](C)C(=O)O [Compound 118] | 0.4 nM |
| Cc1cc2ncc1[C@H](CC(=O)O)c1ccc3c(c1)CN(CC3)C(=O)c1c(F)cc(cc1F)CCCCCO2 [Compound 120] | 0.3 nM and 0.4 nM |
| Cn1cc2c3ccc(cc31)CCCCOc1ccc(cn1)C(CC(=O)O)c1ccc3c(c1)CN(CC3)C2=O (centres unmarked) [Compound 121] | > 990 nM |
| Cc1cc2ncc1[C@@H](CC(=O)O)c1ccc3c(c1)CN(CC3)C(=O)c1c(F)cc(cc1F)CCCCCO2 [Compound 122] | 52.8 nM and 42.8 nM |
| Cc1c2cnc3c1nnn3CCCCCc1ccc(cc1)C(=O)N1CCc3ccc(cc3C1)[C@@H]2CC(=O)O [Compound 124] | 0.6 nM |
| Cc1cc2ncc1C(CC(=O)O)c1ccc3c(c1)CN(CC3)C(=O)c1cn(C)c3ccc(cc13)CCCCCO2 (centres unmarked) [Compound 126] | > 990 nM |
| Cc1c2cnc3c1nnn3CCCCCCOc1cc(F)c(c(F)c1)C(=O)N1CCc3ccc(cc3C1)C2CC(=O)O (centres unmarked) [Compound 128] | 1 nM and 1.4 nM |
